Experiment [1] deals with SOS1:KRAS (G12C) interaction (Homo sapiens (Human), UniProt Q07889). Kind of experiment: SOS1-KRas(G12C) FRET Assay. Conditions: 0.5 nM His10-SOS1 (res. 564-1049), 2.5 nM GST-KRAS (res. 1-169, G12C); read-out: SOS-KRas(G12C) FRET IC50. Type of experiment: binding. The method in brief: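 TR-FRET measured binding of His10-SOS1 (res. 564-1049, 0.5 nM) to GST-KRAS G12C (res. 1-169, 2.5 nM), with anti-GST-Eu(K) and anti-6His-XL665 labels, in PBS with BSA, MgCl2, KF and DTT; 0.5% DMSO. Compound and SOS1 were pre-incubated 15 min at 25° C, KRAS was added, and the plate was read at 665/615 nm after 2 h at RT. IC50 and Hill slope came from non-linear regression.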
Chain of SOS1:KRAS (G12C) interaction (Q07889 564-1049, stated change not applied): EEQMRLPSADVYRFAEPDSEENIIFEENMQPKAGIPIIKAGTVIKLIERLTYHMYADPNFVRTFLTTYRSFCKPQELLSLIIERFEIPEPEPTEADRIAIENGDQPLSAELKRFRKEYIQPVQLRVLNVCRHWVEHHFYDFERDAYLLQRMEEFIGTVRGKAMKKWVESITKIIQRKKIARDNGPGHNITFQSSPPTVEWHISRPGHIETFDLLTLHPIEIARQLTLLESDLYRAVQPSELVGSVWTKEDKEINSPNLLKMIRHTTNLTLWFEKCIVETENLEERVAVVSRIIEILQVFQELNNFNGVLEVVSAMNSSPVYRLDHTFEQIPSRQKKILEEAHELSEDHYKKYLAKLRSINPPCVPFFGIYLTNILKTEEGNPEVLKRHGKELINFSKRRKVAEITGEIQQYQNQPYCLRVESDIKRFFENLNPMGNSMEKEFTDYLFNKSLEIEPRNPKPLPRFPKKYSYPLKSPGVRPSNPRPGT

In the next experiment the target is human SOS1 (Homo sapiens (Human), UniProt Q07889). Kind of experiment: Surface Plasmon Resonance (SPR) SOS1 Binding Assay. Conditions: biotinylated SOS1 (res. 564-1049), 25° C., kinetic or steady state fit, read-out: KD for hSOS1. As to the method:
Binding to SOS1 was measured using a SPR assay with purified recombinant human SOS1 substrate (res. 564-1049 with N-terminal Avi tag; purified and biotinylated based on Hillig, et al., Proc Natl Acad Sci USA (2019); 116(7):2551-2560). SPR measurements were performed on a Biacore 8K SPR instrument (GE Healthcare, Sweden). Assays were performed at 25° C. using Series S SA sensor chips pre-coated with streptavidin (GE Healthcare, Cat. BR100531). Biotinylated SOS1 diluted in sample buffer (20 mM Tris HCl, 150 mM NaCl, 1 mM DTT, 0.05% TWEEN 20, 1 mM MgCl2, pH 8.0) was captured to one flow cell of the chip to about 3,000 resonance units (RU) using sample buffer supplemented with 5% DMSO as a running buffer. Serial dilutions of the assayed compounds in the running buffer at 100, 50 or 0.5 μM were injected for 60 s at a flow rate of 30 μL/min and association phases were recorded. Dissociation of the samples was monitored for 600 s. Data processing was performed using Biacore Insight Software (Biacore, GE Healthcare). Sensorgrams recorded on a SA flow cell without captured protein were subtracted from sensorgrams recorded on the SOS1 surface. Blank injections of running buffer were used for double referencing and solvent correction was applied to all sample sensorgrams to correct for buffer mismatches. KDs were estimated using a kinetic or steady state, where applicable, fitting model describing a reversible equilibrium with 1:1 binding between SOS1 and the compound.

Molecules are shown by their SMILES. pIC50, pKd: −log10 of the molar value.

Chain of human SOS1 (Q07889 564-1049): as the sequence (Q07889 564-1049, stated change not applied) above

With `Cc1c([C@@H](C)Nc2nn(CCN)c(=O)c3cc(=O)n(C4CC4)cc23)cccc1C(F)(F)F` [Example 24, (R)-2-(2-aminoethyl)-6-cyclopropyl-4-((1-(2-methyl-3-(trifluoromethyl)phenyl)ethyl)amino)-2,6-dihydropyrido[3,4-d]pyridazine-1,7-dione], in experiment [1], the pIC50 is 6.62. Further, the pKd at human SOS1 is 7.47. With `CNCc1ccccc1-c1csc([C@@H](C)Nc2nn(C)c(=O)c3cc(=O)n(C4CC4)cc23)c1` [Example 57, (R)-6-cyclopropyl-2-methyl-4-((1-(4-(2-((methylamino)methyl)phenyl)thiophen-2-yl)ethyl)amino)-2,6-dihydropyrido[3,4-d]pyridazine-1,7-dione], the pIC50 in experiment [1] was 7.66. For the same compound, at human SOS1, the pKd was 8.10. The corresponding values for `C[C@@H](Nc1nn(C)c(=O)c2cc(=O)n(C3(C(F)F)CC3)cc12)c1cccc(C(F)F)c1F` [Example 43, (R)-4-((1-(3-(difluoromethyl)-2-fluorophenyl)ethyl)amino)-6-(1-(difluoromethyl)cyclopropyl)-2-methyl-2,6-dihydropyrido[3,4-d]pyridazine-1,7-dione] are 7.22 and 7.62. With `Cc1c([C@@H](C)Nc2nn(C)c(=O)c3c(N4CC[C@@H](N)C4)c(=O)n(C4CC4)cc23)cccc1C(F)(F)F` [Example 20, 8-((R)-3-aminopyrrolidin-1-yl)-6-cyclopropyl-2-methyl-4-(((R)-1-(2-methyl-3-(trifluoromethyl)phenyl)ethyl)amino)-2,6-dihydropyrido[3,4-d]pyridazine-1,7-dione], the pIC50 in experiment [1] was 6.55. Also, the pKd on human SOS1 was 7.20. As for `COc1c(=O)n([C@@H]2CCOC[C@@H]2F)cc2c(N[C@H](C)c3cccc(C(F)F)c3F)nn(C)c(=O)c12` (single isomer, unassigned) [Example 58], the pIC50 in experiment [1] is 7.49. The negative logarithm of the Kd (pKd) at human SOS1 was 7.82.

As for `C[C@@H](Nc1nn(C)c(=O)c2cc(=O)n([C@]3(C(F)(F)F)CCOC3)cc12)c1cccc(C(F)F)c1F` (single isomer, unassigned) [Example 165], the pIC50 in experiment [1] was 6.37. For the compound `COc1c(=O)n([C@@]2(C(F)(F)F)CCOC2)cc2c(N[C@H](C)c3cccc(C(F)F)c3F)nn(C)c(=O)c12` (single isomer, unassigned) [Example 157], the pIC50 in experiment [1] was 7.62. Turning to `C[C@@H](Nc1nn(C)c(=O)c2cc(=O)n(C3(C(C)(F)F)CC3)cc12)c1cccc(C(F)F)c1F` [Example 126, (R)-6-(1-(1,1-difluoroethyl)cyclopropyl)-4-((1-(3-(difluoromethyl)-2-fluorophenyl)ethyl)amino)-2-methyl-2,6-dihydropyrido[3,4-d]pyridazine-1,7-dione], in experiment [1], the pIC50 is 7.17. As for `CC(=O)N1CC(C)(n2cc3c(N[C@H](C)c4cccc(C(F)F)c4F)nn(C)c(=O)c3cc2=O)C1` [Example 149, (R)-6-(1-acetyl-3-methylazetidin-3-yl)-4-((1-(3-(difluoromethyl)-2-fluorophenyl)ethyl)amino)-2-methylpyrido[3,4-d]pyridazine-1,7(2H,6H)-dione], the pIC50 in experiment [1] is 7.46. Same read-out and setting: the result for `C[C@@H](Nc1nn(C)c(=O)c2cc(=O)n(C34CC(C(F)(F)F)(C3)C4)cc12)c1cccc(C(F)F)c1F` [Example 155, (R)-4-((1-(3-(difluoromethyl)-2-fluorophenyl)ethyl)amino)-2-methyl-6-(3-(trifluoromethyl)bicyclo[1.1.1]pentan-1-yl)pyrido[3,4-d]pyridazine-1,7(2H,6H)-dione] reads 6.80; that for `C[C@@H](Nc1nn(C)c(=O)c2cc(=O)n(C3(C(F)F)CCC3)cc12)c1cccc(C(F)F)c1F` [Example 147, (R)-4-((1-(3-(difluoromethyl)-2-fluorophenyl)ethyl)amino)-6-(1-(difluoromethyl)cyclo-butyl)-2-methyl-2,6-dihydropyrido[3,4-d]pyridazine-1,7-dione], 7.49. In the case of `C[C@@H](Nc1nn(C)c(=O)c2cc(=O)n(C3(C)CN(C(=O)C4CC4)C3)cc12)c1cccc(C(F)F)c1F` [Example 150, (R)-6-(1-(cyclopropanecarbonyl)-3-methylazetidin-3-yl)-4-((1-(3-(difluoromethyl)-2-fluorophenyl)ethyl)amino)-2-methyl-2,6-dihydropyrido[3,4-d]pyridazine-1,7-dione], the pIC50 in experiment [1] is 8.26. `C[C@@H](Nc1nn(C)c(=O)c2cc(=O)n(C3CC3)cc12)c1cccc(C(F)(F)C(=O)N(C)C)c1F` [Example 106, (R)-2-(3-(1-((6-cyclopropyl-2-methyl-1,7-dioxo-1,2,6,7-tetrahydropyrido[3,4-d]pyridazin-4-yl)amino)ethyl)-2-fluorophenyl)-2,2-difluoro-N,N-dimethylacetamide]: the pIC50 in experiment [1] was 6.44. In the case of `Cc1c([C@@H](C)Nc2nn(C)c(=O)c3cc(=O)n(C4CCN(C)CC4)cc23)cccc1C(F)(F)F` [Example 23, (R)-2-methyl-4-((1-(2-methyl-3-(trifluoromethyl)phenyl)ethyl)amino)-6-(1-methylpiperidin-4-yl)-2,6-dihydropyrido[3,4-d]pyridazine-1,7-dione], the pIC50 in experiment [1] is 5.71. On to `CC(=O)N1CC[C@@](n2cc3c(N[C@H](C)c4cccc(C(F)F)c4F)nn(C)c(=O)c3cc2=O)(C(F)(F)F)C1` (single isomer, unassigned) [Example 99], for which the pIC50 in experiment [1] is 8.04. Turning to `C[C@@H](Nc1nn(C)c(=O)c2cc(=O)n([C@@H]3CCC(F)(F)C3)cc12)c1cccc(C(F)F)c1F` (single isomer, unassigned) [Example 122], the pIC50 in experiment [1] is 6.50. Still for that read-out and setting: the result for `C[C@@H](Nc1nn(C)c(=O)c2cc(=O)n(C3(C(F)(F)F)COC3)cc12)c1cccc(C(F)F)c1F` [Example 156, (R)-4-((1-(3-(difluoromethyl)-2-fluorophenyl)ethyl)amino)-2-methyl-6-(3-(trifluoromethyl)oxetan-3-yl)-2,6-dihydropyrido[3,4-d]pyridazine-1,7-dione] reads 7.18; that for `COc1c(=O)n(C2CC2)cc2c(N[C@H](C)c3cccc(C(F)F)c3F)nn(C)c(=O)c12` [Example 85, (R)-6-cyclopropyl-4-((1-(3-(difluoromethyl)-2-fluorophenyl)ethyl)amino)-8-methoxy-2-methyl-2,6-dihydropyrido[3,4-d]pyridazine-1,7-dione], 6.72; that for `C[C@@H](Nc1nn(C)c(=O)c2cc(=O)n([C@]3(C(F)(F)F)CCOC3)cc12)c1cccc2c(F)coc12` (single isomer, unassigned) [Example 167], 6.22. Consider `C[C@@H](Nc1nn(C)c(=O)c2cc(=O)n([C@@]3(C(F)F)CCOC3)cc12)c1cccc(C(F)F)c1F` (single isomer, unassigned) [Example 119], for which the pIC50 in experiment [1] is 6.39. As for `C[C@@H](Nc1nn(C)c(=O)c2cc(=O)n([C@H]3C[C@@H]3C(F)(F)F)cc12)c1cccc(C(F)F)c1F` (single isomer, unassigned) [Example 137], the pIC50 in experiment [1] is 7.04.

Turning to `COC(C)(C)C(F)(F)c1cccc([C@@H](C)Nc2nn(C)c(=O)c3cc(=O)n(C4(C(F)F)CC4)cc23)c1F` [Example 110, (R)-4-((1-(3-(1,1-difluoro-2-methoxy-2-methylpropyl)-2-fluorophenyl)ethyl)amino)-6-(1-(difluoromethyl)cyclopropyl)-2-methyl-2,6-dihydropyrido[3,4-d]pyridazine-1,7-dione], in experiment [1], the pIC50 is 7.32. `C[C@@H](Nc1nn(C)c(=O)c2cc(=O)n([C@@]3(C(F)(F)F)CCOC3)cc12)c1cccc(C(F)F)c1F` (single isomer, unassigned) [Example 164]: the pIC50 in experiment [1] is 7.71. Same read-out and setting: the result for `CC(=O)N1C[C@H]2C[C@@]2(n2cc3c(N[C@H](C)c4cccc(C(F)F)c4F)nn(C)c(=O)c3cc2=O)C1` (single isomer, unassigned) [Example 139] reads 6.92; that for `CC(=O)N1CC[C@@](n2cc3c(N[C@H](C)c4cccc5c(F)coc45)nn(C)c(=O)c3cc2=O)(C(F)(F)F)C1` (single isomer, unassigned) [Example 172], 7.86.

Consider `C[C@@H](Nc1nn(C)c(=O)c2cc(=O)n(C3(C(F)F)CC3)cc12)c1cccc2c(F)coc12` [Example 163, (R)-6-(1-(difluoromethyl)cyclopropyl)-4-((1-(3-fluorobenzofuran-7-yl)ethyl)amino)-2-methyl-2,6-dihydropyrido[3,4-d]pyridazine-1,7-dione], for which, in experiment [1], the pIC50 was 7.12.

The values are drawn from US20240279221A1, “HETEROCYCLIC COMPOUNDS AND METHODS OF USE” (Schrödinger, Inc., priority 2021, published 2024).
